Assay results published in ChEMBL document CHEMBL1201862, “PubChem BioAssay data set” (2004).
The source made the active and inactive calls.

Assays:
[1] = target: T1, Endoribonuclease toxin MazF (Escherichia coli K-12, UniProt P0AE70); test: substrate-only fluorescence increase artefacts – biochemical, single-stranded RNase substrate, counter-screen for MazEF activator project, dose response (AID 588502); type: functional
T1 sequence (P0AE70 whole entry): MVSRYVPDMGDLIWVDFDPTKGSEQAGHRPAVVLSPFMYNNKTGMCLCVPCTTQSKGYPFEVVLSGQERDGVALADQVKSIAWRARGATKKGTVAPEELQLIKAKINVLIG

[2] = target: T1, Endoribonuclease toxin MazF; test: activation of MazEF endoribonuclease cleavage – biochemical, fluorescence, single-stranded RNA substrate, uHTS hits, dose response (AID 588481); type: functional
Fatty acid synthase [3] = target: T2, Fatty acid synthase (Homo sapiens, UniProt P49327); test: inhibition of human FAS-TE enzyme activity – biochemical, kinetic fluorescence intensity, dose response (AID 624326); type: functional;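 note: rate of fluorescence rise from hydrolysis of a fluorogenic O-methyl fluorescein ester substrate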
Fatty acid synthase [4] = target: T2, Fatty acid synthase; test: inhibition of human FAS-TE enzyme activity – biochemical, endpoint fluorescence intensity, uHTS hits, dose response (AID 624327); type: functional;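 note: fluorescence from hydrolysis of an O-methyl fluorescein acyl ester substrate by the enzyme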
[5] = target: T3, Sentrin-specific protease 8 (Homo sapiens, UniProt Q96LD8); type: functional;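 note: luminescence read-out of SENP8 inhibition, dose-response confirmation following an ultra-high-throughput screen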
T3 sequence (Q96LD8 whole entry): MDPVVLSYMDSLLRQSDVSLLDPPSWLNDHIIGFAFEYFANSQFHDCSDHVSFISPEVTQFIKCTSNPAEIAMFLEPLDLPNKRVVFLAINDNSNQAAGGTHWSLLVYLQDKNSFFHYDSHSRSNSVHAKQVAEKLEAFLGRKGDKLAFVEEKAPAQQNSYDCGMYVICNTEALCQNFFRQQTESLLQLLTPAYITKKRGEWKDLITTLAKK

Caspase-3 = target: T4, Caspase-3 (Homo sapiens, UniProt P42574); type: functional;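 note: Dose-response selectivity test against caspase-3 for candidate inhibitors of sentrin-specific proteases (SENPs)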
T4 sequence (P42574 whole entry): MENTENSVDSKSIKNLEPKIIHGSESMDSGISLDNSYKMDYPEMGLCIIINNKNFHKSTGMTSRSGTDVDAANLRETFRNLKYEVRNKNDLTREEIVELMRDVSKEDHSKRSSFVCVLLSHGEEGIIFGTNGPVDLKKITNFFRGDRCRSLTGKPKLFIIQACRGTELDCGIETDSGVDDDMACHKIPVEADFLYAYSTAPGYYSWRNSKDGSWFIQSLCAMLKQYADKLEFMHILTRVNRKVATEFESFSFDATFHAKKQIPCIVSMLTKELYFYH

[6] = target: T5, Sentrin-specific protease 6 (Homo sapiens, UniProt Q9GZR1); type: functional;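 note: Luminescence-based dose-response confirmatory assay of SENP6 inhibition, following up an ultra-high-throughput screen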
T5 sequence (Q9GZR1 whole entry): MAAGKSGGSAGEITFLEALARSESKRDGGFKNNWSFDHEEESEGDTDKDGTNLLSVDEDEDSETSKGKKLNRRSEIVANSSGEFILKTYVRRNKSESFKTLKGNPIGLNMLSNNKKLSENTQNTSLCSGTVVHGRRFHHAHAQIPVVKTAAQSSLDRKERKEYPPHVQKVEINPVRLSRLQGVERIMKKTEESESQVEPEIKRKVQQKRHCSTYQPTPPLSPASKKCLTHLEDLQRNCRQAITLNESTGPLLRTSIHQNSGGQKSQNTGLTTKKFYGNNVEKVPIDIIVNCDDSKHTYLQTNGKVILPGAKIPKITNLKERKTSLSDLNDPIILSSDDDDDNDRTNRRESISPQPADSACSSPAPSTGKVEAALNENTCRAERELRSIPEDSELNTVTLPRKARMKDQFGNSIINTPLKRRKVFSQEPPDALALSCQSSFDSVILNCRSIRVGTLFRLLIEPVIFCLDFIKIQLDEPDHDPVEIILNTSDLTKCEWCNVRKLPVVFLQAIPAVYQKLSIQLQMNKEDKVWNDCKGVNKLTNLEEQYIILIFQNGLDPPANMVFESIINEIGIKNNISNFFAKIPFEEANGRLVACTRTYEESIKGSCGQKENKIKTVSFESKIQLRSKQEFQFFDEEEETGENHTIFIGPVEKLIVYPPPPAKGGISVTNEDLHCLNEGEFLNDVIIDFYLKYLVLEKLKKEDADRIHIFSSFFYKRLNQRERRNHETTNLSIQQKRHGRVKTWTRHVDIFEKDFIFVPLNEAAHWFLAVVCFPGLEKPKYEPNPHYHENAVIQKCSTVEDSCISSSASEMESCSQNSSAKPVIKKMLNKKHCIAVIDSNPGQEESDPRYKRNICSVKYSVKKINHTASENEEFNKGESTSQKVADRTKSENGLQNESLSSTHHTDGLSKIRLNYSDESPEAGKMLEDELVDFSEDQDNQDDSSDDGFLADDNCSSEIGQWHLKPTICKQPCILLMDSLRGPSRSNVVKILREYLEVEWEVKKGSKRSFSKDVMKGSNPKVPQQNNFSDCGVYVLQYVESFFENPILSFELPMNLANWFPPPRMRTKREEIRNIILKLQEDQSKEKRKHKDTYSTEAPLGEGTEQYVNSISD

[7] = Luminescence Cell-Based Dose Retest to Confirm Inhibitors of Cancer Stem Cells. [Related pubchem assays (depositor defined):AID2717, AID2721]; type: functional; settings: Homo sapiens
[8] = target: T6, Sentrin-specific protease 7 (Homo sapiens, UniProt Q9BQF6); type: functional;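 note: Luminescence-based dose-response confirmation of ultra-high-throughput screening hits, measuring inhibition of SENP7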
T6 sequence (Q9BQF6 whole entry): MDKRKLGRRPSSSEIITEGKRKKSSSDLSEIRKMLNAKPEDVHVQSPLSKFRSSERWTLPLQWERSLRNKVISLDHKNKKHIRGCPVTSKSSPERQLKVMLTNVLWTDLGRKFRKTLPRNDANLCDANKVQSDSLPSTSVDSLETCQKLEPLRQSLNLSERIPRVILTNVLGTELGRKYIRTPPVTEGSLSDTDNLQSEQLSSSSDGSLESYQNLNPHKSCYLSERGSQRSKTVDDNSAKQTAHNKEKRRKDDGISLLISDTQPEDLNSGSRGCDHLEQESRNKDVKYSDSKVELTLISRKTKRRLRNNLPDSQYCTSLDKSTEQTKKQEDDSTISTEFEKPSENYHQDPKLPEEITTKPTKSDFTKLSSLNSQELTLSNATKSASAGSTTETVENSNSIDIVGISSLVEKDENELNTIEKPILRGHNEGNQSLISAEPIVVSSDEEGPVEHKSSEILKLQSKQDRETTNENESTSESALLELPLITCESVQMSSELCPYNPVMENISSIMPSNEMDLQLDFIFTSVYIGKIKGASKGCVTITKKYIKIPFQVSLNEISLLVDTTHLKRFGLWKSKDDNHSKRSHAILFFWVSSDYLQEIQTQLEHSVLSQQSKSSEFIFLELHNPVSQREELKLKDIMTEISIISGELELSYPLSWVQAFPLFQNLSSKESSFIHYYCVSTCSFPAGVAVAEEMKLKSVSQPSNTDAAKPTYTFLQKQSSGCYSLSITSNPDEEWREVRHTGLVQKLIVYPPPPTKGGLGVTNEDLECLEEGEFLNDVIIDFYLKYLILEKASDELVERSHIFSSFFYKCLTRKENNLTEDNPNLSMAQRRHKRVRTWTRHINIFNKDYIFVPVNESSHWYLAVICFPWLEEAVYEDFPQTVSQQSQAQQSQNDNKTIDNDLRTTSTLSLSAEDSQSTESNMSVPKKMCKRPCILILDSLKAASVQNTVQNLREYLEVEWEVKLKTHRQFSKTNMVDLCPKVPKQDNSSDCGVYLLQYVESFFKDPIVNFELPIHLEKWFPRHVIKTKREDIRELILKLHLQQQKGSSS

[9] = target: T7, Heat shock factor protein 1 (Mus musculus, UniProt P38532); test: enhancement of HSF1-driven luciferase signal – cell-based, NIH3T3, luminescence, dose retest, confirmation (AID 435004); type: functional;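 note: stress induced by proteasome inhibitor MG132 added 30 min after compound; luciferase reporter driven by HSF1 response element in NIH3T3 cells; actives raise luminescence as potentiators of the MG132 stress response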
T7 sequence (P38532 whole entry): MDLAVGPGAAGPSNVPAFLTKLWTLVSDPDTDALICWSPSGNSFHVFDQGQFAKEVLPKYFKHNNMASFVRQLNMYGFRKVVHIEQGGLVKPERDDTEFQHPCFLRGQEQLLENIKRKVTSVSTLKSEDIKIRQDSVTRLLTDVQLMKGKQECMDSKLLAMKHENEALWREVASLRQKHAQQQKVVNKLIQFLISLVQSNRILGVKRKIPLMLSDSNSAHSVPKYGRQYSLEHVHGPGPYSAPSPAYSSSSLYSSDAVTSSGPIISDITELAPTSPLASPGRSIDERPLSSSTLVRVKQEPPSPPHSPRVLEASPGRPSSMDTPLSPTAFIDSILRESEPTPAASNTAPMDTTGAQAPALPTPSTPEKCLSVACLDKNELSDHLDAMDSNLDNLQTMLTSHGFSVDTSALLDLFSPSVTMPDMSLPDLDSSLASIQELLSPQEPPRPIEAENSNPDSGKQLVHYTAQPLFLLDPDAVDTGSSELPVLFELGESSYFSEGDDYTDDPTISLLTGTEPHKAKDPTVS

[10] = target: T8, Zinc finger protein mex-5 (Caenorhabditis elegans, UniProt Q9XUB2); test: potency of MEX-5 RNA-binding blockers – biochemical, C. elegans, fluorescence polarization, dose response (AID 1960)
T8 sequence (Q9XUB2 whole entry): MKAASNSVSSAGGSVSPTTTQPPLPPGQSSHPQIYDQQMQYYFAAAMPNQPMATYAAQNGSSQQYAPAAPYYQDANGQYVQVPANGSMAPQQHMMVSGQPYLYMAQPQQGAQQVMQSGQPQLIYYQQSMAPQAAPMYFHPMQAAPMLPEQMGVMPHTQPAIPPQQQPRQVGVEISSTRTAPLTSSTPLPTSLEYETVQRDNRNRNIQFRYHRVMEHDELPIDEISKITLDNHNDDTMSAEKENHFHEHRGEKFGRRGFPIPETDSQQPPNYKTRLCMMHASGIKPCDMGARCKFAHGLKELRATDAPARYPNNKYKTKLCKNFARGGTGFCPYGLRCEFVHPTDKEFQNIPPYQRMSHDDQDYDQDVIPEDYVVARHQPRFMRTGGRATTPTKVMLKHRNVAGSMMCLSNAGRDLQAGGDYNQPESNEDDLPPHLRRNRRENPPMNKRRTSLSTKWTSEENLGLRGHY

cells = type: functional
[11] = target: T9, RNA-binding protein pos-1 (Caenorhabditis elegans, UniProt G5EF15); test: disruptors of C. elegans POS-1 RNA interaction – biochemical, fluorescence polarization, dose response (AID 1964);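 note: purified POS-1 fused to maltose binding protein made in E. coli; potency of compounds blocking POS-1 binding to fluorescent RNA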
T9 sequence (G5EF15 whole entry): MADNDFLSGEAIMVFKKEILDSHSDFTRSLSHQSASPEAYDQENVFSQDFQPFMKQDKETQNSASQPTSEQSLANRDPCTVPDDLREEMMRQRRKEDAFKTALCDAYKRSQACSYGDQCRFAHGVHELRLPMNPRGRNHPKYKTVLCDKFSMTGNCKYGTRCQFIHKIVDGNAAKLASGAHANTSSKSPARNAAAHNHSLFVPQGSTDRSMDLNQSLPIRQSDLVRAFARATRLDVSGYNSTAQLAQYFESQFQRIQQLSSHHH
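Throughout, for AC50: cells exposed to compound for roughly 70 hours or longer before luminescence read.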

T2 sequence (P49327 whole entry): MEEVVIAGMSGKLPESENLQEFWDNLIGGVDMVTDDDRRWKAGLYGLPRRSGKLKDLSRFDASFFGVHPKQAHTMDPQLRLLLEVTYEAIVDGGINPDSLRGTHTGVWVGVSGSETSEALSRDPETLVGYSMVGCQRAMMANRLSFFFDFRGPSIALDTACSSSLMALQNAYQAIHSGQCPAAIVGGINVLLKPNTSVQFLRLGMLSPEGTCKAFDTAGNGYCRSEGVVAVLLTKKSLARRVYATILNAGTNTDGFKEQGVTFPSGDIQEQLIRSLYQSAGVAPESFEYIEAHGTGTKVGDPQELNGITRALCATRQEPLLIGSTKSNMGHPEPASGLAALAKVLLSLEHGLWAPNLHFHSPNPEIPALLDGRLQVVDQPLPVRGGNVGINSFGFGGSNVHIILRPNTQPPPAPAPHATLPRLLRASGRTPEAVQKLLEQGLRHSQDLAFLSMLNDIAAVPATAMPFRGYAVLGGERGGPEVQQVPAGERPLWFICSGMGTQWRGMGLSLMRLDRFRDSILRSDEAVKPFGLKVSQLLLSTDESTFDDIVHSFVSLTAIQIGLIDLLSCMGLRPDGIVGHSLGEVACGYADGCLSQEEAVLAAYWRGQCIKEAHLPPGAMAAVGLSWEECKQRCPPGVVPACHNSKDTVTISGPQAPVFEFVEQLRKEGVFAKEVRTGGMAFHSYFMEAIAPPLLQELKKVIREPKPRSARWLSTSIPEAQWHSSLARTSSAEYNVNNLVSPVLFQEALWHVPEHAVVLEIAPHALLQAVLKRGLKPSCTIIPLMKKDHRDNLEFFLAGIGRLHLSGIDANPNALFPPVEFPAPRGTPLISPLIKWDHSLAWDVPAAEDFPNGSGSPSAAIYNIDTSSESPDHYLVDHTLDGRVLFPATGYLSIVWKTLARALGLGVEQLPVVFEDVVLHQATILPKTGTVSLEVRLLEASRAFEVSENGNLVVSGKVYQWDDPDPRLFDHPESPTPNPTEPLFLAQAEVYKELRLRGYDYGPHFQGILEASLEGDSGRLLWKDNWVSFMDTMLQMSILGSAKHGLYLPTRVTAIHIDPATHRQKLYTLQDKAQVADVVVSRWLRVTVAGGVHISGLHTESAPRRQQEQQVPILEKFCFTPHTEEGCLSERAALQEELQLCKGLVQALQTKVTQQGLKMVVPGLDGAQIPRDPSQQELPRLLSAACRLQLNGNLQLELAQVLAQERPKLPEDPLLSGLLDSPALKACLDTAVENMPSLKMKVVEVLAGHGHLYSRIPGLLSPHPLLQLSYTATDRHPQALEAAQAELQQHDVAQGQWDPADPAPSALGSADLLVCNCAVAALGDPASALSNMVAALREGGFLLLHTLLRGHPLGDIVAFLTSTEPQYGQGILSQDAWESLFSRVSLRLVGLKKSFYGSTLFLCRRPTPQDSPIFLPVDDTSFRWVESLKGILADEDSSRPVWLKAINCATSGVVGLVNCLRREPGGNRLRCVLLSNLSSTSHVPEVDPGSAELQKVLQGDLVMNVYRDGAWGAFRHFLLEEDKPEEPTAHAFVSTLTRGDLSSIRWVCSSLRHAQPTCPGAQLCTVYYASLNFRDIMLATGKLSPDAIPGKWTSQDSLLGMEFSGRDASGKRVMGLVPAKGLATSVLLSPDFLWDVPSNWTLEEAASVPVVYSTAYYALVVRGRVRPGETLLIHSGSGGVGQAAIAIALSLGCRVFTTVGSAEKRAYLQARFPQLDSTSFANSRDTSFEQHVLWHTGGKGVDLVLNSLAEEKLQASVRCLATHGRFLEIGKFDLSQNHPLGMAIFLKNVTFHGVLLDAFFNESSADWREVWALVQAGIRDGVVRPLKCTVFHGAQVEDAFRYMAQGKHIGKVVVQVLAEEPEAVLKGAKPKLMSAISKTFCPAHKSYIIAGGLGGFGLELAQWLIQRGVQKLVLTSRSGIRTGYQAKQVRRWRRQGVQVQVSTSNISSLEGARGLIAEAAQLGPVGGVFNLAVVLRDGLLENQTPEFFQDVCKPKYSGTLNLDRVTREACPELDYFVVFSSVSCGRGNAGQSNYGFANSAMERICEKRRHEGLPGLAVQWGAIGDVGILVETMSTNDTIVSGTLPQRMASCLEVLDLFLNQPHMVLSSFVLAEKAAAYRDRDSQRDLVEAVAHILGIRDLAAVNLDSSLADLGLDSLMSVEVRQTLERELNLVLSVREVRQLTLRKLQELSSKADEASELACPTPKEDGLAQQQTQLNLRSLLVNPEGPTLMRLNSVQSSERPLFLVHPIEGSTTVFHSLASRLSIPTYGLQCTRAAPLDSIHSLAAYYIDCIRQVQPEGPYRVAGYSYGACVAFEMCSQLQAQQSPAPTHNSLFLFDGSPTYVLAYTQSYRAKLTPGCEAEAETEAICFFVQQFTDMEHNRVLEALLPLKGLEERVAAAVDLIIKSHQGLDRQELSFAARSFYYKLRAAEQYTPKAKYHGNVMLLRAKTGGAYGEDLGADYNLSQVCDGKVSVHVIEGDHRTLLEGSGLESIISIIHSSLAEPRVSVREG

SMILES | EC50 [1] | EC50 [2] | IC50 (Fatty acid synthase [3]) | IC50 (Fatty acid synthase [4]) | IC50 [5] | IC50 (Caspase-3) | IC50 [6] | AC50 [7] | IC50 [8] | EC50 [9] | EC50 [10] | IC50 (cells) | EC50 [11]
O=[N+]([O-])c1ccc(S(=O)(=O)N[N-][C+]2CCCCC2)cc1 | 7.03 µM (active) | > 99 µM (inactive) | – | – | – | – | – | – | – | – | – | – | –
COc1ccc2nc(NC(=O)c3ccc([N+](=O)[O-])o3)sc2c1 | – | – | 8.39 µM (active) | 14.5 µM (active) | 22.9 µM (active) | 28.2 µM (active) | 13.8 µM (active) | 1.96 µM (active) | 4.54 µM (active) | – | – | – | –
O=C(O)c1ccc(-c2nc(O)c3c(-c4ccccc4)csc3n2)cc1 | – | – | – | – | 61.6 µM (active) | > 100 µM (inactive) | 56.1 µM (active) | – | 40.4 µM (active) | – | – | – | –
COc1nc(C)ccc1-c1noc(-c2cccs2)n1 | – | – | – | – | 9.82 µM (active) | 13 µM (active) | 32.7 µM (active) | – | 5.07 µM (active) | > 260 µM (inactive) | – | – | –
O=[N+]([O-])c1ccc(Nc2ccccc2O)c2nonc12 | > 99 µM (inactive) | > 99 µM (inactive) | – | – | – | – | – | – | – | – | 28.2 µM (active) | 5.81 µM (active) | 24.4 µM (active)
